Entries after “also recorded” stand apart in the source; their conditions may differ.
Experiments:
CoREST complex = assay: Fluorescence-based deacetylase assay of cell-derived HDAC complex, CoREST; type: biochemical
From the text: The HDAC inhibition was profiled in a fluorescence-based deacetylase assay.

CYP2B6 = CYP2B6 (Homo sapiens, UniProt P20813); assay: Metabolism by recombinant human CYP2B6; type: in vitro ADME; conditions: read-out: terminal half life (T1/2), rh CYP2B6
Method: Drug metabolizing enzymes involved in the biotransformation of Compound I were investigated using human liver microsomes (HLM) and recombinant enzymes. Compound I was stable in HLMs (>93% remaining after 240 minutes of incubation with HLM protein concentration at 0.6 mg/ml). CYP selective inhibitor experiments were not performed due to lack of appreciable Compound I turnover.

Sequence of CYP2B6 (P20813 whole entry): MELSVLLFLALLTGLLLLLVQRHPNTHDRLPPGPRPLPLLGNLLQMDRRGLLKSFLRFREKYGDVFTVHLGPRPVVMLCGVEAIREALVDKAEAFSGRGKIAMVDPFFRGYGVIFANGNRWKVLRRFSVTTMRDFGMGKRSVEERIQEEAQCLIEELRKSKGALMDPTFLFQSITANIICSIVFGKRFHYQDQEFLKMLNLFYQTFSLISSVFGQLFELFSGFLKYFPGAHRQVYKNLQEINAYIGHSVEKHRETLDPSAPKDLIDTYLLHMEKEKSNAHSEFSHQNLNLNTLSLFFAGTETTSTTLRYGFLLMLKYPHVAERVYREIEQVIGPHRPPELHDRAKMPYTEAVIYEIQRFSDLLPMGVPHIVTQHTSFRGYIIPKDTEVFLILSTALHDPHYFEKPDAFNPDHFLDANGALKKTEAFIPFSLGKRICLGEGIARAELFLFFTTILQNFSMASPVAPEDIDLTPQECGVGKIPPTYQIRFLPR

Question: For `C[S@@](=N)(=O)c1ccc(C(=O)Nc2cc(-c3ccc(F)cc3)ccc2N)cc1` [Compound I, (R)—N-(4-amino-4′-fluoro-[1,1′-biphenyl]-3-yl)-4-(S-methylsulfonimidoyl)benzamide], which “selectivity for CoREST deacetylase compared to NCOR, NuRD, and Sin3” value (CoREST complex) is on record?
Answer: Its value is “significant selectivity; also recorded: selective for the CoREST complex”.

Question: And the half-life (CYP2B6)?
Answer: The half-life was greater than 1 h.

Source: US20260041653A1, “AN HDAC INHIBITOR FOR TREATING CANCER WITH A MODIFIED STK11 ACTIVITY OR EXPRESSION” (Tango Therapeutics, Inc., priority 2022, published 2026)
